Read-outs that look alike come from different tables or passages of the source.
Assays:
JNK = JNK Activation Assay in Panc-1 (western blot); type: cell-based, Human; design: key: Y = yes; N = No; conditions: at 10 μM
Outline: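 Cells were serum-starved overnight in 0.5% FBS, then given compound (10 μM single dose or serial dilutions, 0.3% DMSO) for 3 h at 37 °C. TGF-b1 at 10 ng/ml followed, 1 h for Panc-1 and 20 min for C2C12. Phospho-JNK (Thr183/Tyr185) was read by western blot of lysates.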

MAPK p38 = MAPK p38 Activation Assay in Panc-1 (western blot); type: cell-based, Human; design: key: Y = yes; N = No; conditions: at 10 μM
Outline: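 Cells serum-starved overnight in 0.5% FBS, then compound 3 h at 37° C (10 μM or serial dilutions for IC50; 0.3% DMSO). TGF-b1 10 ng/ml stimulation followed: 1 h for Panc-1, 20 min for C2C12. Phospho-p38 (Thr180/Tyr182) measured by western blot of lysates.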

KRas wild type = KRas wild type (Homo sapiens (Human), UniProt P01116); assay: Ras GTP Binding Domain Inhibition Assay, KRas wild type
Outline: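 His-tagged KRas proteins coated on nickel plates overnight at 4° C in Tris buffer (pH 7.4 or 7.0, MgCl2, DTT); compounds at 20 μM final (or serial dilutions for IC50) for 3 h at room temperature, ±Sos (residues 556-1049) in final hour. Bound Cy3- or Cy5-GTP (100 nM, 45 min) read by fluorescence after washing.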

Rac-1 = Rac-1 (Homo sapiens (Human), UniProt P63000); assay: Ras GTP Binding Domain Inhibition Assay, Rac-1; conditions: without SOS, read-out: Rac-1: % inh.
Outline: (§1)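 Steps: coat His-tagged protein (10-30 μg/mL) on nickel wells overnight at 4° C; add test compound, 20 μM final or serial dilution, 1% DMSO, 3 h RT; optional Sos final hour; add 100 nM Cy3-GTP or Cy5-GTP, 45 min; wash and read fluorescence.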

Rho-A = Rho-A (Homo sapiens (Human), UniProt P61586); assay: Ras GTP Binding Domain Inhibition Assay, Rho-A; conditions: without SOS, read-out: Rho-A: % inh.
Outline: as §1

[1] = + SOS, read-out: KRas wild type + SOS: % inh.
[2] = without SOS, read-out: KRas wild type: % inh.

Sequence of Rho-A (P61586 whole entry, species assumed, the tested form may be a part): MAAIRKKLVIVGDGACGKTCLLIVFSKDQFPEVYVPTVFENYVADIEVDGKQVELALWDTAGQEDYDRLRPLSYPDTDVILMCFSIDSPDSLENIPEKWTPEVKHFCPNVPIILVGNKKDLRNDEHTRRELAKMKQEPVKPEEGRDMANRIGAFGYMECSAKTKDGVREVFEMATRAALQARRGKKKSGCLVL
Sequence of KRas wild type (P01116 other isoform, or with tags, fused parts or gaps): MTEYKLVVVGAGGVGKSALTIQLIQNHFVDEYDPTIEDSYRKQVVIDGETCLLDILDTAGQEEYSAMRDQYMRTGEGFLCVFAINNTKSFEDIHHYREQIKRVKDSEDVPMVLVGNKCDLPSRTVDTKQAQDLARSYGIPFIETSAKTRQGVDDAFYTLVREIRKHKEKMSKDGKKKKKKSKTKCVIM

Row | SMILES | Activation of JNK in PANC-1 (JNK) | Activation of MAPK p38 in PANC-1 (MAPK p38) | inhibition at 20 µM (KRas wild type; [1]) [%] | inhibition at 20 µM (KRas wild type; [2]) [%] | inhibition at 20 µM (Rac-1) [%] | inhibition at 20 µM (Rho-A) [%]
1 | COc1cccc(Nc2nc(-c3nccn3C)nc3sc(-c4ccn(C(C)C)n4)c(C)c23)c1 [Compound 17, 6-(1-Isopropyl-1H-pyrazol-3-yl)-N-(3-methoxyphenyl)-5-methyl-2-(1-methyl-1H-imidazol-2-yl)thieno[2,3-d]pyrimidin-4-amine] | Y | Y | 46 to 75 | 26 to 45 | 26 to 45 | 46 to 75
2 | COc1cccc(Nc2nc(-c3nccn3C)nc3sc(-c4ccn(C(C)C)n4)c(C)c23)n1 [Compound 18, 6-(1-Isopropyl-1H-pyrazol-3-yl)-N-(6-methoxypyridin-2-yl)-5-methyl-2-(1-methyl-1H-imidazol-2-yl)thieno[2,3-d]pyrimidin-4-amine] | Y | Y | 46 to 75 | 46 to 75 | 46 to 75 | 76 to 100
3 | COc1cc(Nc2nc(-c3nccn3C)nc3sc(-c4ccn(C(C)C)n4)c(C)c23)ncn1 [Compound 19, 6-(1-Isopropyl-1H-pyrazol-3-yl)-N-(6-methoxypyrimidin-4-yl)-5-methyl-2-(1-methyl-1H-imidazol-2-yl)thieno[2,3-d]pyrimidin-4-amine] | Y | Y | 76 to 100 | 76 to 100 | 46 to 75 | 76 to 100
4 | COCCOCCNc1nc(-c2nccn2C)nc2sc(-c3ccn(C(C)C)n3)c(C)c12 [Compound 21, 6-(1-Isopropyl-1H-pyrazol-3-yl)-N-(2-(2-methoxyethoxy)ethyl)-5-methyl-2-(1-methyl-1H-imidazol-2-yl)thieno[2,3-d]pyrimidin-4-amine] | Y | Y | 76 to 100 | 76 to 100 | 76 to 100 | 76 to 100
5 | Cc1c(-c2ccn(C(C)C)n2)sc2nc(-c3nccn3C)nc(NCCN3CCOCC3)c12 [Compound 22, 6-(1-Isopropyl-1H-pyrazol-3-yl)-5-methyl-2-(1-methyl-1H-imidazol-2-yl)-N-(2-morpholinoethyl)thieno[2,3-d]pyrimidin-4-amine] | Y | Y | 76 to 100 | 76 to 100 | 76 to 100 | 76 to 100
6 | Cc1c(-c2ccn(C(C)C)n2)sc2nc(-c3nccn3C)nc(NCCN3CCS(=O)(=O)CC3)c12 [Compound 23, 4-(2-((6-(1-Isopropyl-1H-pyrazol-3-yl)-5-methyl-2-(1-methyl-1H-imidazol-2-yl)thieno[2,3-d]pyrimidin-4-yl)amino)ethyl)thiomorpholine 1,1-dioxide] | N | Y | 76 to 100 | 76 to 100 | 46 to 75 | 46 to 75
7 | CO[C@H]1CNC[C@@H](Nc2nc(-c3nccn3C)nc3sc(-c4ccn(C(C)C)n4)cc23)C1 [Compound 28, 6-(1-Isopropyl-1H-pyrazol-3-yl)-N-((3S,5R)-5-methoxypiperidin-3-yl)-2-(1-methyl-1H-imidazol-2-yl)thieno[2,3-d]pyrimidin-4-amine] | Y | Y | 76 to 100 | 76 to 100 | 46 to 75 | 46 to 75
8 | COCCn1c(-c2nccn2C)nc2sc(-c3ccn(C(C)C)n3)c(C)c2c1=O [Compound 29, 6-(1-Isopropyl-1H-pyrazol-3-yl)-3-(2-methoxyethyl)-5-methyl-2-(1-methyl-1H-imidazol-2-yl)thieno[2,3-d]pyrimidin-4(3H)-one] | Y | Y | 76 to 100 | 76 to 100 | 0 | 76 to 100
9 | COCCOc1nc(-c2nccn2C)nc2sc(-c3ccn(C(C)C)n3)c(C)c12 [Compound 30, 6-(1-Isopropyl-1H-pyrazol-3-yl)-4-(2-methoxyethoxy)-5-methyl-2-(1-methyl-1H-imidazol-2-yl)thieno[2,3-d]pyrimidine] | N | N | 0 | 1 to 25 | 0 | 0
10 | COCCCn1c(-c2nccn2C)nc2sc(-c3ccn(C(C)C)n3)c(C)c2c1=O [Compound 31, 6-(1-Isopropyl-1H-pyrazol-3-yl)-3-(3-methoxypropyl)-5-methyl-2-(1-methyl-1H-imidazol-2-yl)thieno[2,3-d]pyrimidin-4(3H)-one] | N | N | 1 to 25 | 1 to 25 | 0 | 0
11 | COCCCOc1nc(-c2nccn2C)nc2sc(-c3ccn(C(C)C)n3)c(C)c12 [Compound 32, 6-(1-Isopropyl-1H-pyrazol-3-yl)-4-(3-methoxypropoxy)-5-methyl-2-(1-methyl-1H-imidazol-2-yl)thieno[2,3-d]pyrimidine] | Y | N | 76 to 100 | 76 to 100 | 0 | 76 to 100
12 | COCCCCn1c(-c2nccn2C)nc2sc(-c3ccn(C(C)C)n3)c(C)c2c1=O [Compound 33, 6-(1-Isopropyl-1H-pyrazol-3-yl)-3-(4-methoxybutyl)-5-methyl-2-(1-methyl-1H-imidazol-2-yl)thieno[2,3-d]pyrimidin-4(3H)-one] | N | N | 1 to 25 | 0 | 0 | 0
13 | COCCCCOc1nc(-c2nccn2C)nc2sc(-c3ccn(C(C)C)n3)c(C)c12 [Compound 34, 6-(1-Isopropyl-1H-pyrazol-3-yl)-4-(4-methoxybutoxy)-5-methyl-2-(1-methyl-1H-imidazol-2-yl)thieno[2,3-d]pyrimidine] | Y | N | 0 | 1 to 25 | 0 | 0
14 | COc1cc(Cn2c(-c3nccn3C)nc3sc(-c4ccn(C(C)C)n4)c(C)c3c2=O)ncn1 [Compound 35, 6-(1-Isopropyl-1H-pyrazol-3-yl)-3-((6-methoxypyrimidin-4-yl)methyl)-5-methyl-2-(1-methyl-1H-imidazol-2-yl)thieno[2,3-d]pyrimidin-4(3H)-one] | N | N | 1 to 25 | 1 to 25 | 0 | 0
15 | COCCCn1c(-c2nccn2C)nc2sc(-c3ccn(C(C)C)n3)c(-c3ccccc3)c2c1=O [Compound 36, 6-(1-Isopropyl-1H-pyrazol-3-yl)-3-(3-methoxypropyl)-2-(1-methyl-1H-imidazol-2-yl)-5-phenylthieno[2,3-d]pyrimidin-4(3H)-one] | Y | Y | 1 to 25 | 1 to 25 | 0 | 0

Source: patent publication US20240124483A1, “Methods for the Treatment of Fibrotic Disease” (SHY Therapeutics, LLC, priority 2021, published 2024)
